Data reported in patent publication US20050154537A1, “Methods, program products, and systems for single and multi-agent dosing and other related methods” (priority 2003, published 2005).

Columns and labels:
Type in all cases: in vivo
Platelets = experiment: Lookup table: marker validity (nadir) window, Platelets; settings: days elapsed between current dose and marker; for Platelets LL: lower limit of nadir range; for Platelets UL: upper limit of nadir range
From the text: (§1) A lookup table has been constructed (see above example), in the form of a table, to represent the relationship of each trial Agent and its qualified Clinical Markers. This table includes information regarding the Maximum Dose and the Inverse Marker Applicability for each Agent. The gray cells on the Cycle Dose Modifier indicate these values.
(§2) The table also includes information regarding the nadir of applicability for each Agent—Marker combination. The range, in days and indicated as the Lower Limit and Upper limit, has been determined by calculating a percentage (20%) above and below the true nadir value when only a single value is known. Otherwise, the upper and lower nadir values are used. […] The values of Upper and Lower limits is shown as a property of the Association between Markers and Agents. The Relevancy of a Marker can be computed using the lookup table by comparing the number of days elapsed between the date of the application of the current dose and the date on which the Marker was taken to the upper and lower values for that Agent Marker Association. If the elapsed days are greater than or equal to the lower limit and less than or equal to the upper limit, then the calculations provided by the Cycle Dose Modifier are said to be relevant and thereby applicable as indicated in the yellow Marker Validity cell. The Relevancy of Cycle Dose Modifier Calculations for Agent 1 is based on the Validity of Marker for Agent 1 calculated by: =IF(and((($B13−B6)>=VLOOKUP(B$3,Validity!$A$3:$K$8,10)),((B$13−B6)<=VLOOKUP(B$3,Validity!$A$3:$K$8,11))),“valid”,“invalid”)

Neutrophil Count (ANC) = experiment: Lookup table: marker validity (nadir) window, Neutrophil Count (ANC); settings: days elapsed between current dose and marker; for Neutrophil Count (ANC) LL: lower limit of nadir range; for Neutrophil Count (ANC) UL: upper limit of nadir range
From the text: as §1, §2

Hemoglobin (Hgb) = experiment: Lookup table: marker validity (nadir) window, Hemoglobin (Hgb); settings: days elapsed between current dose and marker; for Hemoglobin (Hgb) LL: lower limit of nadir range; for Hemoglobin (Hgb) UL: upper limit of nadir range
From the text: as §1, §2

LDL [1] = experiment: Non-Pharm Example 2: triplet Lipitor, aerobics and diet, LDL marker
From the text: Set at an initial value of 1, this value is then adjusted based upon actual case scenarios with a full data set to adjust the value to identify the contribution to the toxicity or efficacy until the actual value is achieved. It can be used to modify dose based upon non-pharmacologic effects such as diet, exercise and activity as determined by the prescriber. A non-pharmacologic three-part combination therapy example could include a cholesterol lowering agent, exercise and a restrictive diet. In place of dose the exercise value would be measured in ‘METS’ (Metabolic Equivalent of oxygen consumption) or the dietary prescription in calories or grams of cholesterol.
Triplet, Agent One: Pharmacologic, Agent Two: Non-Pharmacologic (Exercise), Agent Three: Diet (Grams of Cholesterol)

LDL [2] = experiment: Non-Pharm Example 1: doublet Lipitor and aerobics, LDL marker
From the text: Efficacy/Toxicity Determinant Agent 2 (Gemzar) (ETD2) is a value determined by the prescriber. Set at an initial value of 1, this value is then adjusted based upon actual case scenarios with a full data set to adjust the value to identify the contribution to the toxicity or efficacy until the actual value is achieved. It can be used to modify dose based upon non-pharmacologic effects such as diet, exercise and activity as determined by the prescriber. A non-pharmacologic two-part combination therapy example could include a cholesterol lowering agent and exercise or cholesterol lowering agent and a restrictive diet. In place of dose the exercise value would be measured in ‘METS’ (Metabolic Equivalent of oxygen consumption) or the dietary prescription in calories or grams of fat or cholesterol.
Doublet Agent One: Pharmacologic, Agent Two:Non-Pharmacologic (Exercise)

INR = experiment: Single agent cycle dose modifier, warfarin sodium patient example; settings: for Current Level of Efficacy/CLTE: current cycle total dose 57, dose Oct. 21, marker Oct. 26, 2004; for Previous Level of Efficacy/PLTE: previous cycle total dose 60, seven-day cycle
From the text: Warfarin Sodium (coumadin) is used in this example as a single agent. Table 1 illustrates a method of revising a drug dose in treating a patient with one pharamcologic […] modality to optimize pharmacologic outcome and to reduce the risk of an adverse drug event while assessing the clinical relevancy and validity of the measured surrogate marker.
In Table 1, Previous Cycle Total Dose (PCTD) is a value directly entered without new calculation. It is the cumulative amount of the agent administered during the previous treatment cycle as defined by the total amount of drug given over a fixed period of time, such as in chemotherapy, the total amount, e.g., mg/m^2, administered throughout the defined regimen period. In this single agent therapy example for chronic disease management, that is, prevention of venous thrombosis with warfarin sodium, the cycle becomes the total amount of warfarin sodium, in milligrams, administered over a seven-day period. The period is determined when the modifier is constructed.
Previous Level of Toxicity-Efficacy (PLTE) is a value directly entered such as from a lab report. It is the numerical value of a marker of toxicity or efficacy reported at the previous dose cycle adjustment (evaluated at a specified elapsed time sufficient to capture the nadir of the dose effect). The surrogate marker is selected when the dose modifier is constructed.
Current Level of Toxicity-Efficacy (CLTE) is also a value directly entered such as from a lab report. It is the numerical value of the marker of toxicity or efficacy reported with the current dose cycle. The surrogate marker is that value that illustrates the expression of the toxicity or efficacy of the agent on a specific and pre-selected value determined when the dose modifier is constructed. The value is selected based upon the agent, its pharmacologic properties and the disease condition under treatment. The confidence or validity of the marker is based upon its maturity of effect in that a nadir or cycle of effect is dynamic and may vary based upon the time span between receipt of the agent and sampling of the value. Therefore the value may be valid or invalid based upon this timing factor. If invalid, then the dose adjustment cannot be made. If valid, then the value is fully appreciated and the dose modification can be calculated. The surrogate marker is selected when the dose modifier is constructed.
Expected Current Level (ECL) is a comparative operator used to illustrate the mathematical expectation of the patient's response to the actual patient response to classify their individual response characteristics. […]

SMILES | Platelets LL (Platelets) [days] | Platelets UL (Platelets) [days] | Neutrophil Count (ANC) LL (Neutrophil Count (ANC)) [days] | Neutrophil Count (ANC) UL (Neutrophil Count (ANC)) [days] | Hemoglobin (Hgb) LL (Hemoglobin (Hgb)) [days] | Hemoglobin (Hgb) UL (Hemoglobin (Hgb)) [days] | Current Level of Efficacy CLTEM1 (LDL [1]; current cycle Lipitor 300.00 with aerobics 168/week and diet 182/week, marker Dec. 05, 2004) | Previous Level of/PLTEM1 (LDL [1]; previous cycle Lipitor 220.00 with aerobics 140/week and diet 210/week) | Current Level of Efficacy/CLTEM1 (LDL [2]; current cycle Lipitor 280 with aerobics 168/week, marker Dec. 05, 2004) | Previous Level of Efficacy/PLTEM1 (LDL [2]; previous cycle Lipitor 210 with aerobics 140/week) | Current Level of Efficacy/CLTE (INR; Comparison Cycle column) | Previous Level of Efficacy/PLTE (INR; Comparison Cycle column) | Current Level of Efficacy/CLTE (INR; Current Cycle column) | Previous Level of Efficacy/PLTE (INR; Current Cycle column)
N.N.O=C([O-])C1(C(=O)[O-])CCC1.[Pt+2] [Carboplatin] | 17 | 25 | 17 | 25 | 14 | 21 | – | – | – | – | – | – | – | –
N.N.[Cl][Pt][Cl] [Cisplatin] | 18 | 23 | 18 | 23 | 18 | 23 | – | – | – | – | – | – | – | –
Nc1ccn([C@@H]2O[C@H](CO)[C@@H](O)C2(F)F)c(=O)n1 [Gemzar] | 7 | 10 | 7 | 10 | 7 | 10 | – | – | – | – | – | – | – | –
CC(C)c1c(C(=O)Nc2ccccc2)c(-c2ccccc2)c(-c2ccc(F)cc2)n1CC[C@@H](O)C[C@@H](O)CC(=O)O [Lipitor] | – | – | – | – | – | – | 122 | 140 | 120 | 150 | – | – | – | –
CC(=O)O[C@@]12CO[C@@H]1C[C@H](O)[C@@]1(C)C(=O)[C@H](O)C3=C(C)[C@@H](OC(=O)[C@H](O)[C@@H](NC(=O)OC(C)(C)C)c4ccccc4)C[C@@](O)([C@@H](OC(=O)c4ccccc4)[C@H]21)C3(C)C [Taxotere] | 6 | 8 | 6 | 8 | 8 | 11 | – | – | – | – | – | – | – | –
CC(=O)CC(c1ccccc1)c1c(O)c2ccccc2oc1=O (centres unmarked) [Warfarin Sodium] | – | – | – | – | – | – | – | – | – | – | 3.80 | 4.50 | 3.80 | 4.50
